The record followed here is paper PMC11996873, “Asparagine drives immune evasion in bladder cancer via RIG-I stability and type I IFN signaling” (The Journal of Clinical Investigation, 2025).

For this assay, the target named is T1, RIG-I (Homo sapiens, UniProt O95786).
T1 construct: gene RIGI
T1 sequence (O95786 1-925): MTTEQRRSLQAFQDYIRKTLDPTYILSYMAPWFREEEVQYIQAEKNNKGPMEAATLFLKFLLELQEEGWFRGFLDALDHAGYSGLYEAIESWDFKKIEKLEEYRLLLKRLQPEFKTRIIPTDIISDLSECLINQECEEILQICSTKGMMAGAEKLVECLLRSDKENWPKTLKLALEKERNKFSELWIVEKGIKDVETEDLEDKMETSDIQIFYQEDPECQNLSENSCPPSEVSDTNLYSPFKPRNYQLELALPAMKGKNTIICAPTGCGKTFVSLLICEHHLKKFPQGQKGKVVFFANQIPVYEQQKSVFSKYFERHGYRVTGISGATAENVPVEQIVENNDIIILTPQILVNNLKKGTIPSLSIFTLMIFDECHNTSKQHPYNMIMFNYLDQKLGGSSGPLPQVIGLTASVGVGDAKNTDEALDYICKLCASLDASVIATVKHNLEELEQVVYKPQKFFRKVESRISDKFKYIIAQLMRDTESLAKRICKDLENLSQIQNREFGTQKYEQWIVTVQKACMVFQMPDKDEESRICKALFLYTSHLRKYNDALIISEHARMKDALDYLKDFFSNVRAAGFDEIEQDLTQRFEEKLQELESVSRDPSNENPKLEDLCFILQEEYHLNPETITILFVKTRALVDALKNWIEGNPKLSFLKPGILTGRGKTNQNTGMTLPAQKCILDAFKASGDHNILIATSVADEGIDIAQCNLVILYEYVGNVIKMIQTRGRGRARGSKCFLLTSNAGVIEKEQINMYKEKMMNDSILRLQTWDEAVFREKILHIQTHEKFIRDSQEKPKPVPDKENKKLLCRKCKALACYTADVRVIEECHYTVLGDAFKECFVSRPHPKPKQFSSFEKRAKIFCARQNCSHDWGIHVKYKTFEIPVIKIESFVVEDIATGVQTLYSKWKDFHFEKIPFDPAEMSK
As to the kind of experiment: microscale thermophoresis (Monolith NT.[…]). It is filed as binding. On the technique in general: Microscale thermophoresis detects binding through changes in fluorescence in a small temperature gradient.

The Kd is the free concentration of one partner at which half of the binding sites on the other are occupied at equilibrium, for simple one-to-one binding. High values mean weaker binding, low ones tighter binding. In the case of `NC(=O)C[C@H](N)C(=O)O` [asparagine], the dissociation constant (Kd) worked out at 303 µM.
